Data from PubChem BioAssay AID1963966 (Molecular Pharmacology Branch, DTP, NCI, 2024).

System: 935938-334-R-J1-PDC spheroids with HUVEC/MSC, viability
Assay: Anticancer human tumor 935938-334-R-J1-PDC patient-derived small intestine adenocarcinoma cell line growth inhibition [PI3K]
Settings: for IC50: curve of first compound; for viability, T/C: stronger effect = lower value
Procedure, shortened: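 Targeted small molecules plus PI3K inhibitors, half-log dose series from Cmax (default top 10 microM), were applied to heterotypic spheroids of cancer cells with HUVEC and MSCs. Viability indicated growth inhibition.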

[1] = second compound 0.0316 µM, first compound 0.0316 µM
[2] = second compound 0.0316 µM, first compound 0.1 µM
[3] = second compound 0.0316 µM, first compound 0.316 µM
[4] = second compound 0.0316 µM, first compound 1 µM
[5] = second compound 0.0316 µM, first compound 3.16 µM
[6] = second compound 0.0316 µM, first compound 10 µM
[7] = second compound 0.1 µM, first compound 0.0316 µM
[8] = second compound 0.1 µM, first compound 0.1 µM
[9] = second compound 0.1 µM, first compound 0.316 µM
[10] = second compound 0.1 µM, first compound 1 µM
[11] = second compound 0.1 µM, first compound 3.16 µM
[12] = second compound 0.1 µM, first compound 10 µM
[13] = second compound 0.316 µM, first compound 0.0316 µM
[14] = second compound 0.316 µM, first compound 0.1 µM
[15] = second compound 0.316 µM, first compound 0.316 µM
[16] = second compound 0.316 µM, first compound 1 µM
[17] = second compound 0.316 µM, first compound 3.16 µM
[18] = second compound 0.316 µM, first compound 10 µM
[19] = second compound 1 µM, first compound 0.0316 µM
[20] = second compound 1 µM, first compound 0.1 µM
[21] = second compound 1 µM, first compound 0.316 µM
[22] = second compound 1 µM, first compound 1 µM
[23] = second compound 1 µM, first compound 3.16 µM
[24] = second compound 1 µM, first compound 10 µM
[25] = second compound 3.16 µM, first compound 0.0316 µM
[26] = second compound 3.16 µM, first compound 0.1 µM
[27] = second compound 3.16 µM, first compound 0.316 µM
[28] = second compound 3.16 µM, first compound 1 µM
[29] = second compound 3.16 µM, first compound 3.16 µM
[30] = second compound 3.16 µM, first compound 10 µM
[31] = second compound 10 µM, first compound 0.0316 µM
[32] = second compound 10 µM, first compound 0.1 µM
[33] = second compound 10 µM, first compound 0.316 µM
[34] = second compound 10 µM, first compound 1 µM
[35] = second compound 10 µM, first compound 3.16 µM
[36] = second compound 10 µM, first compound 10 µM
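Further: compound exposure lasted seven days before viability was read.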
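Wherever viability, T/C is given: percent of vehicle DMSO treated spheroid viability so 100% = untreated.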

CC1(C)CCC(CN2CCN(c3ccc(C(=O)NS(=O)(=O)c4ccc(NCC5CCOCC5)c([N+](=O)[O-])c4)c(Oc4cnc5[nH]ccc5c4)c3)CC2)=C(c2ccc(Cl)cc2)C1 + Cc1nc(NC(=O)N2CCCC2C(N)=O)sc1-c1ccnc(C(C)(C)C(F)(F)F)c1
IC50 (second compound 0.0316 µM): 6.77 µM
IC50 (second compound 0.1 µM): 7.42 µM
IC50 (second compound 0.316 µM): 6.51 µM
IC50 (second compound 1 µM): 5.32 µM
IC50 (second compound 3.16 µM): 4.25 µM
IC50 (second compound 10 µM): < 0.0316 µM
viability, T/C [1]: 85.1%
viability, T/C [2]: 97.9%
viability, T/C [3]: 91.5%
viability, T/C [4]: 80.6%
viability, T/C [5]: 87.7%
viability, T/C [6]: 30.7%
viability, T/C [7]: 81.9%
viability, T/C [8]: 97.5%
viability, T/C [9]: 89.3%
viability, T/C [10]: 99.4%
viability, T/C [11]: 101%
viability, T/C [12]: 34.6%
viability, T/C [13]: 96.3%
viability, T/C [14]: 99%
viability, T/C [15]: 76.5%
viability, T/C [16]: 55.2%
viability, T/C [17]: 92.4%
viability, T/C [18]: 29.8%
viability, T/C [19]: 82%
viability, T/C [20]: 75.5%
viability, T/C [21]: 72.4%
viability, T/C [22]: 57.4%
viability, T/C [23]: 70.8%
viability, T/C [24]: 25.4%
viability, T/C [25]: 52.3%
viability, T/C [26]: 67%
viability, T/C [27]: 53.5%
viability, T/C [28]: 58.6%
viability, T/C [29]: 60%
viability, T/C [30]: 26.2%
viability, T/C [31]: 38.1%
viability, T/C [32]: 42.1%
viability, T/C [33]: 36.6%
viability, T/C [34]: 44.4%
viability, T/C [35]: 48%
viability, T/C [36]: 31.4%

CCCS(=O)(=O)Nc1ccc(F)c(C(=O)c2c[nH]c3ncc(-c4ccc(Cl)cc4)cc23)c1F + Cc1nc(NC(=O)N2CCCC2C(N)=O)sc1-c1ccnc(C(C)(C)C(F)(F)F)c1
IC50 (second compound 0.0316 µM): 6.36 µM
IC50 (second compound 0.1 µM): 6.49 µM
IC50 (second compound 0.316 µM): 5.57 µM
IC50 (second compound 1 µM): 5.52 µM
IC50 (second compound 3.16 µM): 4.6 µM
IC50 (second compound 10 µM): 0.0316 µM
viability, T/C [1]: 85.6%
viability, T/C [2]: 113%
viability, T/C [3]: 98.5%
viability, T/C [4]: 97.6%
viability, T/C [5]: 94.1%
viability, T/C [6]: 21.5%
viability, T/C [7]: 90.2%
viability, T/C [8]: 75.4%
viability, T/C [9]: 105%
viability, T/C [10]: 112%
viability, T/C [11]: 98.2%
viability, T/C [12]: 22.3%
viability, T/C [13]: 82%
viability, T/C [14]: 110%
viability, T/C [15]: 88.9%
viability, T/C [16]: 95.5%
viability, T/C [17]: 81.2%
viability, T/C [18]: 17.6%
viability, T/C [19]: 75.3%
viability, T/C [20]: 85%
viability, T/C [21]: 88%
viability, T/C [22]: 74.1%
viability, T/C [23]: 77.1%
viability, T/C [24]: 21.2%
viability, T/C [25]: 63.1%
viability, T/C [26]: 52.7%
viability, T/C [27]: 69%
viability, T/C [28]: 65.5%
viability, T/C [29]: 67.5%
viability, T/C [30]: 22.1%
viability, T/C [31]: 36.9%
viability, T/C [32]: 47.2%
viability, T/C [33]: 54.2%
viability, T/C [34]: 51.7%
viability, T/C [35]: 54.4%
viability, T/C [36]: 18.2%

CNC(=O)c1ccc(N2C(=S)N(c3ccc(C#N)c(C(F)(F)F)c3)C(=O)C2(C)C)cc1F + Cc1nc(NC(=O)N2CCCC2C(N)=O)sc1-c1ccnc(C(C)(C)C(F)(F)F)c1
IC50 (second compound 0.0316 µM): > 10 µM
IC50 (second compound 0.1 µM): > 10 µM
IC50 (second compound 0.316 µM): > 10 µM
IC50 (second compound 1 µM): > 10 µM
IC50 (second compound 3.16 µM): < 0.0316 µM
IC50 (second compound 10 µM): 0.162 µM
viability, T/C [1]: 111%
viability, T/C [2]: 84.3%
viability, T/C [3]: 84.9%
viability, T/C [4]: 91.9%
viability, T/C [5]: 100%
viability, T/C [6]: 88%
viability, T/C [7]: 81.7%
viability, T/C [8]: 88.7%
viability, T/C [9]: 65.5%
viability, T/C [10]: 84.4%
viability, T/C [11]: 76.8%
viability, T/C [12]: 62.9%
viability, T/C [13]: 103%
viability, T/C [14]: 59.7%
viability, T/C [15]: 81.9%
viability, T/C [16]: 69.6%
viability, T/C [17]: 77%
viability, T/C [18]: 56.7%
viability, T/C [19]: 75.2%
viability, T/C [20]: 76.8%
viability, T/C [21]: 70.2%
viability, T/C [22]: 101%
viability, T/C [23]: 56.2%
viability, T/C [24]: 70.7%
viability, T/C [25]: 39.6%
viability, T/C [26]: 43.9%
viability, T/C [27]: 51%
viability, T/C [28]: 51.5%
viability, T/C [29]: 47%
viability, T/C [30]: 47.3%
viability, T/C [31]: 45.6%
viability, T/C [32]: 59.7%
viability, T/C [33]: 46.2%
viability, T/C [34]: 39.3%
viability, T/C [35]: 38.5%
viability, T/C [36]: 34.3%
